Reference: patent EP0888346B1, “CORALYNE ANALOGS AS TOPOISOMERASE INHIBITORS” (RUTGERS, THE STATE UNIVERSITY OF NEW JERSEY, priority 1996, dated 1997)
pIC50: −log10 of the molar value. Values after ≈ are worked out from the molar mass of the structure shown.

Columns and labels:
[1] = system: human epidermoid carcinoma KB 3-1 cell line; experiment: MTA cytotoxicity assay, epidermoid carcinoma cells; type: cell-based; conditions: KB 3-1, 96 h, read-out: Cytotoxicity KB3-1
Procedure: (§1) The results were plotted and the IC50 then measured.
(§2) The coralyne analog 7c was tested for its effectiveness against glioblastoma cells. The assay used was similar to that described above for the RPMI-8402 cell line. The results are shown in table 2 below which compares the effect of Compound 7c against the leukemia cell line (RPMI 8402), epidermal carncinoma (KB3-1) and glioblastoma (SF-268): Table 2

[2] = target: T1, recombinant CPT-K5 topoisomerase I (Homo sapiens, UniProt P11387, D533G); experiment: Cleavage assay with camptothecin-resistant mutant topo I; type: biochemical; conditions: relative to wildtype human topoisomerase I
T1 construct: 15 amino acid vector-derived fusion (pET-11a leader); made in house; host or cells: E. coli BL21(DE3)
T1 sequence (P11387 1-765 D533G): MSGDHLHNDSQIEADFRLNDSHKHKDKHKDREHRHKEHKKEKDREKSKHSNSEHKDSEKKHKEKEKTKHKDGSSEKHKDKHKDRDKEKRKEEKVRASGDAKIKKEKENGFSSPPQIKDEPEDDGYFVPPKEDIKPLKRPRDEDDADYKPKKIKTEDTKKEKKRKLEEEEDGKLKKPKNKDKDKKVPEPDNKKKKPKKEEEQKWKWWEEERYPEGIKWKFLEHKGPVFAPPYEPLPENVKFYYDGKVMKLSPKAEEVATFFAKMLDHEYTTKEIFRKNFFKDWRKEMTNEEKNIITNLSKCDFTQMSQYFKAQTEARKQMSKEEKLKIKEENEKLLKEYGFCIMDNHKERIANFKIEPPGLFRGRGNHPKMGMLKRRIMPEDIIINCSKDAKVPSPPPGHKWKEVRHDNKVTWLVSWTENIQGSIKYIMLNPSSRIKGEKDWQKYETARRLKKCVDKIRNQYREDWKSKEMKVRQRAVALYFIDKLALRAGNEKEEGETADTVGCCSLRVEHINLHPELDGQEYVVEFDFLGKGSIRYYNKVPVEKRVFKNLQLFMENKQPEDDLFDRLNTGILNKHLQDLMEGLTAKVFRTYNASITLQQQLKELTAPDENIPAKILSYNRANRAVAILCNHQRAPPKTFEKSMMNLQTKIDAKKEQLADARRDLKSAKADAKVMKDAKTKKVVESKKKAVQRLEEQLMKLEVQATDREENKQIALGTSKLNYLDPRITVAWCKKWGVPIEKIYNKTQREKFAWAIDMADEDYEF
Procedure: (§3) Cleavage assays for the recombinant topoisomerases I and calf thymus topoisomerases I and II were done as described (Liu et al., J. Biol. Chem. 258:15365-15370 (1983)). The plasmid YEpG DNA used for the cleavage assays was prepared and labeled at its 3'-end using the published procedures.

[3] = system: calf thymus topoisomerase II; experiment: Topo II cleavage assay (plasmid YEpG DNA); type: biochemical; conditions: concentration relative to VM-26 = 1 producing the same cleavage on the plasmid DNA
From the text: The plasmid pET11a and the E. coli strain BL21(DE3) used for enzyme expression were purchased from Novagen. IPTG was purchased from Sigma. The ECL system used for the Western blotting analysis of bacterial lysates was from Amersham (UK). All the restriction enzymes and Vent polymerase were from New England Biolabs. Mammalian topoisomerase II was isolated from calf thymus glands according to the published procedure (Halligan et al., J. Biol. Chem. 260:2475-2482 (1985)). The single copy yeast plasmids YCpGAL1 expressing various topoisomerase I genes in JN2-134 yeast strain were a kind gift of Dr. M-A. Bjornsti (Thomas Jefferson University, Philadelphia, PA). All bacterial and yeast media were from Difco (Detroit, MI), while cell culture media were purchased from Gibco-BRL (Gaithersburg, MD).
as §3

[4] = system: camptothecin-resistant CPT-K5 cells; experiment: MTT-microtiter plate tetrazolinium cytotoxicity assay (MTA), camptothecin-resistant cells; conditions: Homo sapiens, CPT-K5, 96 h, read-out: Cytotoxicity IC50 CPT-K5
Procedure: The IC50 of the drugs tested were determined by the MTT-microtiter plate tetrazolinium cytotoxicity assay (MTA) (Mosmann, T., J. Immunol. Methods 65:55-63 (1983); Denizot et al., J. Immunol. Methods 89:271-277 (1986)). Human lymphoblast RPMI 8402 cells and their camptothecin-resistant CPT-K5 cells (Andoh et al., Proc. Natl. Acad. Sci., USA 84:5565-5569 (1987)) were kindly provided by Dr. Toshiwo Andoh (Aichi Cancer Center Research Institute, Nagoya, Japan). […] Cells (2000 cells/well, seeded in […] growth medium) were grown in suspension at 37°C in 5% CO2 and maintained by regular passage in RPMI medium supplemented with 10% heat inactivated fetal bovine serum, L-glutamine (2 mM), penicillin (100 U/ml), and streptomycin (0.1 mg/ml). The cells were exposed continuously for 4 days to different drug concentrations, and assayed at the end of the fourth day. Each concentration and the no drug control were repeated at least twice in 6 replica wells. The results were plotted and the IC50 then measured. The drug sensitive human epidermoid carcinoma KB 3-1 cell line and its vinblastine-selected multidrug-resistant variant KB-V1 cells (Akiyama et al., Genetics 11:117-126 (1985)) were kindly provided by Dr. Michael Gottesmann (National Cancer Institute). They were grown as monolayer cultures at 37°C in 5% CO2 and maintained by regular passage in Dulbecco's minimal essential medium supplemented with 10% heat inactivated fetal bovine serum. KB-V1 cells were maintained in the presence of […] vinblastine.

[5] = system: glioblastoma cell line SF-268; experiment: MTA cytotoxicity assay, glioblastoma cells; type: cell-based; conditions: Homo sapiens, SF-268, 96 h, read-out: Cytotoxicity SF-268
Procedure: as §1, §2

**Q.** What does the source list for `CC[C@@]1(O)C(=O)OCc2c1cc1n(c2=O)Cc2cc3ccccc3nc2-1` [CPT, camptothecin, reference compound]?
**A.** IC50 [1]: 4 ng/mL (≈ 0.0115 µM); resistance of recombinant CPT-K5 topoisomerase I to the drug [2]: over 1000 fold; Topo II-mediated DNA cleavage (REC, Relative Effective Concentration) [3]: >1000; pIC50 [4]: < 5.00; IC50 [5]: 5 ng/mL (≈ 0.0144 µM)
